According to publication PMC3445516 (PLoS ONE, 2012):
Like-named read-outs stand apart in the source and are kept apart here.

How the values were obtained:
Assay in all cases: Ambit kinase profiling, competition binding
ACVRL1 = molecular target: T1, ACVRL1 (Homo sapiens, UniProt P37023)
T1 construct: purchased Ambit Biosciences (KINOMEscan)
Description: (§1) Also included in the kinase profile are four isoforms of PKC (δ, ε, η, θ) and eight isoforms of CAMKs (CAMKIα, δ, γ; CAMKIIα, β, δ, γ; CAMK4).
(§2) The global kinase profiling experiment was performed by Ambit Biosciences.

CDK2 = molecular target: T2, CDK2 (Homo sapiens, UniProt P24941); conditions: for % Competition: 10 µM
T2 construct: purchased Ambit Biosciences (KINOMEscan)
Description: as §1, §2

CLK4 = molecular target: T3, CLK4 (Homo sapiens, UniProt Q9HAZ1)
T3 construct: purchased Ambit Biosciences (KINOMEscan)
Description: as §1, §2

CSNK1G3 = molecular target: T4, CSNK1G3 (Homo sapiens, UniProt Q9Y6M4); conditions: for % Competition: 10 µM
T4 construct: purchased Ambit Biosciences (KINOMEscan)
Description: as §1, §2

ERK1 = molecular target: T5, ERK1 (Homo sapiens, UniProt P27361)
T5 construct: purchased Ambit Biosciences (KINOMEscan)
Description: as §1, §2

MST3 = molecular target: T6, MST3 (Homo sapiens, UniProt Q9Y6E0); conditions: for % Competition: 10 µM
T6 construct: purchased Ambit Biosciences (KINOMEscan)
Description: as §1, §2

PRKD1 = molecular target: T7, PRKD1 (Homo sapiens, UniProt Q15139)
T7 construct: purchased Ambit Biosciences (KINOMEscan)
T7 sequence (Q15139 1-912): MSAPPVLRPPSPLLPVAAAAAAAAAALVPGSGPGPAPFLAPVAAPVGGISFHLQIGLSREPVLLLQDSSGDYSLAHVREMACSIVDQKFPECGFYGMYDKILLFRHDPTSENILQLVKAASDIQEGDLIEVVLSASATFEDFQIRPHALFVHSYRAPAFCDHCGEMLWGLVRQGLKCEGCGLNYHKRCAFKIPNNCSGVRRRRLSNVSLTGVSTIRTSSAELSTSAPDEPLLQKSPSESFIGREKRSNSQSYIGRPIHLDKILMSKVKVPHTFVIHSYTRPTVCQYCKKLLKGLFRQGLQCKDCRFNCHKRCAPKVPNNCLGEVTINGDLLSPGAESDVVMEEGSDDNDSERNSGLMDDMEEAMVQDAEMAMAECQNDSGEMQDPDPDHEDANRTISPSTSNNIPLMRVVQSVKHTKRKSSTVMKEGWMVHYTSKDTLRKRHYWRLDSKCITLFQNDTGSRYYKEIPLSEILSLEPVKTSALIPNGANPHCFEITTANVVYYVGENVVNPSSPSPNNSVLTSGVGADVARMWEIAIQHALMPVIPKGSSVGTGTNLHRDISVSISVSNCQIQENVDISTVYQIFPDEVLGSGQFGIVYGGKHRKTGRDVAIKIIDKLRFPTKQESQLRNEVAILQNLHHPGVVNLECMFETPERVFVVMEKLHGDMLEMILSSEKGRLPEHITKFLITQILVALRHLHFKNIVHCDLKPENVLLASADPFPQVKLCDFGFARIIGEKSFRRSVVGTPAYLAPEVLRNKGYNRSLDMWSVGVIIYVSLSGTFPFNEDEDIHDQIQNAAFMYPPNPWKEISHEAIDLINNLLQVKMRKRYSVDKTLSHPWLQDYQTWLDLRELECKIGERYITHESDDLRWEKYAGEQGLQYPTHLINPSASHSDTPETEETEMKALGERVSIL
Description: as §1, §2

PRKD3 = molecular target: T8, PRKD3 (Homo sapiens, UniProt O94806)
T8 construct: purchased Ambit Biosciences (KINOMEscan)
T8 sequence (O94806 1-890): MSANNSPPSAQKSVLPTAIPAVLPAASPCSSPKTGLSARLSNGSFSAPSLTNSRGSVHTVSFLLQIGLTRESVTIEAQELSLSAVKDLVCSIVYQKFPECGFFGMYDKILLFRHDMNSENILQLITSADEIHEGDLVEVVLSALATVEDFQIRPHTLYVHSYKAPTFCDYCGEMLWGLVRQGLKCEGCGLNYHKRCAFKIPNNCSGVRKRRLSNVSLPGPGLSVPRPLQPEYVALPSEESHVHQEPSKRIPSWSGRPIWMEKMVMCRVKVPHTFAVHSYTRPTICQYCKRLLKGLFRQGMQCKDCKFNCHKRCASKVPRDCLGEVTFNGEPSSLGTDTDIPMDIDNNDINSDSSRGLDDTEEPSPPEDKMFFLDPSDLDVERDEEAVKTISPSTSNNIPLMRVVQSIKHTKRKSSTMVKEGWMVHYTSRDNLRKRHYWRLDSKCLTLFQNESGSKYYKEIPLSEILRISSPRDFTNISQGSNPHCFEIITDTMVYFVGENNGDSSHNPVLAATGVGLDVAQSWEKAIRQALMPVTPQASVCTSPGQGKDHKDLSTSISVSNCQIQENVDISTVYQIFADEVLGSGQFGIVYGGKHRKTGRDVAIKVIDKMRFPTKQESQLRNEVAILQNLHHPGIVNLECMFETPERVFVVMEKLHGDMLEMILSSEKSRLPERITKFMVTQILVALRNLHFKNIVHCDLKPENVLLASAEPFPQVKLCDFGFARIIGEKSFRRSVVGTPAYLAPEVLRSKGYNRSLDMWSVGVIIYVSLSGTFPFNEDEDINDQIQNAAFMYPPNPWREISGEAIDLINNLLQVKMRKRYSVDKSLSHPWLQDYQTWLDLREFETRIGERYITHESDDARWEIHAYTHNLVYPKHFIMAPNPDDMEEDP
Description: as §1, §2

ROCK2 = molecular target: T9, ROCK2 (Homo sapiens, UniProt O75116)
T9 construct: purchased Ambit Biosciences (KINOMEscan)
Description: as §1, §2

T6 sequence (Q9Y6E0 whole entry): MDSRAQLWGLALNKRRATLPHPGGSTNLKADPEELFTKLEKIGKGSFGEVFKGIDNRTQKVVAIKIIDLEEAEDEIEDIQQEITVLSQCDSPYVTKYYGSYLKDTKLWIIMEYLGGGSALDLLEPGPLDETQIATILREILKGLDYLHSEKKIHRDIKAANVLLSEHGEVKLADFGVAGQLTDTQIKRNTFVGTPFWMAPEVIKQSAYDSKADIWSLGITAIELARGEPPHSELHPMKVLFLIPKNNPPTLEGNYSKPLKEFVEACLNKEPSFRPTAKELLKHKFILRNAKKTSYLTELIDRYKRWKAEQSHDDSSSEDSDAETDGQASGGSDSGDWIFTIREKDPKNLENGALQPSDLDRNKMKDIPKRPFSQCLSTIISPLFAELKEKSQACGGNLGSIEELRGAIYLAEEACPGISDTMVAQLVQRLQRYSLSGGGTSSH
T4 sequence (Q9Y6M4 whole entry): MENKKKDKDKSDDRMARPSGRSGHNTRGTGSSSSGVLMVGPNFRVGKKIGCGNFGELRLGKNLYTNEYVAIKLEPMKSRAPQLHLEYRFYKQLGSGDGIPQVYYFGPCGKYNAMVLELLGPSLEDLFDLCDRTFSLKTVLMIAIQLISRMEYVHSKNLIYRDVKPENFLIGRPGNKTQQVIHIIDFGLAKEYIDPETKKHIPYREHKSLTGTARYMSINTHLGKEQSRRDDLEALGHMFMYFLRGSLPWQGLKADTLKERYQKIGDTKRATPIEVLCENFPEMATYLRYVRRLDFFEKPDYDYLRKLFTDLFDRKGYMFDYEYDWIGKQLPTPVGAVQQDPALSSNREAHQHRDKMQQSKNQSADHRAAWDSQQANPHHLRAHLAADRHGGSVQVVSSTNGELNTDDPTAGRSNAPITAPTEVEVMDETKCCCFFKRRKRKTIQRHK
T9 sequence (O75116 whole entry): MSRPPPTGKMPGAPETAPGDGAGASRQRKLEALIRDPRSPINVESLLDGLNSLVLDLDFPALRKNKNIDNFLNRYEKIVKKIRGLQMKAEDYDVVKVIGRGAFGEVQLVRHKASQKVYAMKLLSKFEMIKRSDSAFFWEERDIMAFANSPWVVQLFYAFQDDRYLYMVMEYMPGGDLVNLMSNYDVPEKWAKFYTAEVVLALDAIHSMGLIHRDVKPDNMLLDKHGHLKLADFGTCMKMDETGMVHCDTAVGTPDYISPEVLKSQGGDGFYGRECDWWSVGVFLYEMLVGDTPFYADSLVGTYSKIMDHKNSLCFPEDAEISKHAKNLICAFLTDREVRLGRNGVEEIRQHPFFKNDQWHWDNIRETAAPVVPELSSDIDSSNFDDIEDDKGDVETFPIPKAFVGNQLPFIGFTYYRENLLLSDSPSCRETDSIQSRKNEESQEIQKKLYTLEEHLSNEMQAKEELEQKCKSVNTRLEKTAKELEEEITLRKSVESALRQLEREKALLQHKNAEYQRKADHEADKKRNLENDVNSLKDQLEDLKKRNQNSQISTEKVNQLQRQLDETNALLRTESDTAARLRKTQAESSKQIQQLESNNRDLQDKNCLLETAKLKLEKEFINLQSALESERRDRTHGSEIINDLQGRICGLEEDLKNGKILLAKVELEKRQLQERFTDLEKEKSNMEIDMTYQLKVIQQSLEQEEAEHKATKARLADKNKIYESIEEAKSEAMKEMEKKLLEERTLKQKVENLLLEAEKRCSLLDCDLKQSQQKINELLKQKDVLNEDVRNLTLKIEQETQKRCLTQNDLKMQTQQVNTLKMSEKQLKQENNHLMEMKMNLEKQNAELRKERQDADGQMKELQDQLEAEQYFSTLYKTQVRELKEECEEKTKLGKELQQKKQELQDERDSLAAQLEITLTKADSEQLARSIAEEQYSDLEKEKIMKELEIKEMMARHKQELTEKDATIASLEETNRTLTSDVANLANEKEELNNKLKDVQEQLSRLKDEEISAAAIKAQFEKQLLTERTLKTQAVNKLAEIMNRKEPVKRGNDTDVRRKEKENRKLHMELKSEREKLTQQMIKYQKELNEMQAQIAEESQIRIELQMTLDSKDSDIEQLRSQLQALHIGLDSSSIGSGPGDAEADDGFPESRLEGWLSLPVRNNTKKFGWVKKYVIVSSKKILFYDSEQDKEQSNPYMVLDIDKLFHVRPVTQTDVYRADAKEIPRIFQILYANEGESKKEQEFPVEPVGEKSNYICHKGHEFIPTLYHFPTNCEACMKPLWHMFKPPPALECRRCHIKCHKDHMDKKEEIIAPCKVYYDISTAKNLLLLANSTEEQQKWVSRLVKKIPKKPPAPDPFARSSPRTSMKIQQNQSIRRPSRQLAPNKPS
T1 sequence (P37023 22-503): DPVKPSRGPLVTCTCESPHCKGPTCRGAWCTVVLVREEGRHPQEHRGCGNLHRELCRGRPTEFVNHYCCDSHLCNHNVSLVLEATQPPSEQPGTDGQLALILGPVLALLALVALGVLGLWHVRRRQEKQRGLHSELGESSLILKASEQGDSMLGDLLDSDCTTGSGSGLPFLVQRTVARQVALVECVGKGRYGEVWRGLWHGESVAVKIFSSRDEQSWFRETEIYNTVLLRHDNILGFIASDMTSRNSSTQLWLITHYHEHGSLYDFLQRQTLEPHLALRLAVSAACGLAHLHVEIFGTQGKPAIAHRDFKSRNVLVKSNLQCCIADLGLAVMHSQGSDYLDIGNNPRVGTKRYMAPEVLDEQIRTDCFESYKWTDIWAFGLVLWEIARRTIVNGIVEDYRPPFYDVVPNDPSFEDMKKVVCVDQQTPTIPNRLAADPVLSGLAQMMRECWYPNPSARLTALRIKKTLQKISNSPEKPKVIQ
T3 sequence (Q9HAZ1 whole entry): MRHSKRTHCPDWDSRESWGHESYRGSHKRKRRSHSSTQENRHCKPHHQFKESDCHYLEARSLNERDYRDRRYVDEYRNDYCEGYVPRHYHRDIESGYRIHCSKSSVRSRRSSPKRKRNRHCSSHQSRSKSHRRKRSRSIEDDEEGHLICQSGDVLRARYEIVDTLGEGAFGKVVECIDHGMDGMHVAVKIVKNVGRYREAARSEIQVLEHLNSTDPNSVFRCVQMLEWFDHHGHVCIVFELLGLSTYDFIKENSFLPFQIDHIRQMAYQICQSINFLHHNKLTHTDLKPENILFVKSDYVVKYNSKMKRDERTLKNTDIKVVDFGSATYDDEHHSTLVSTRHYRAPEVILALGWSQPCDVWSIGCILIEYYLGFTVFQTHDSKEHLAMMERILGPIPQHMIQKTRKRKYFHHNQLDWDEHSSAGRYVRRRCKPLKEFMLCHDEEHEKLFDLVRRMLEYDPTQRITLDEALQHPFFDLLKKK
T5 sequence (P27361 whole entry): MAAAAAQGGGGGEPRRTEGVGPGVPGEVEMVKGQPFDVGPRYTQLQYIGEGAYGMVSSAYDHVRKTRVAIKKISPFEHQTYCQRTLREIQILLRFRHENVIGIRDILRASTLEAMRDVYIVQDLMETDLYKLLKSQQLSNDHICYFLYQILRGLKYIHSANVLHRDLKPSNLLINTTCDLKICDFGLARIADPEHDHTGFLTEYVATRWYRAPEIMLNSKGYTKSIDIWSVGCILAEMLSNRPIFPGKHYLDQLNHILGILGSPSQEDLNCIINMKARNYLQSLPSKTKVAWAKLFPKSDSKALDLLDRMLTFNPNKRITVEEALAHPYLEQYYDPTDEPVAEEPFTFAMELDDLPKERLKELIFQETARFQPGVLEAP

Fc1ccc(-c2c(-c3ccncc3)[nH]c3nccnc23)cc1 [Compound 122]
inhibition at 10 µM (ACVRL1; ACVRL1, 10 µM, read-out: % Competition): 83%
% Competition (CDK2): 93%
inhibition at 10 µM (CLK4; CLK4, 10 µM, read-out: % Competition): 88%
% Competition (CSNK1G3): 86%
inhibition at 10 µM (ERK1; ERK1, 10 µM, read-out: % Competition): 80%
% Competition (MST3): 68%
inhibition at 10 µM (PRKD1; PRKD1 (PKD1), 10 µM, read-out: % Competition): 92%
inhibition at 10 µM (PRKD3; PRKD3 (PKD3), 10 µM, read-out: % Competition): 98%
inhibition at 10 µM (ROCK2; ROCK2, 10 µM, read-out: % Competition): 89%

CC(O)CNc1cc(-c2[nH]c3cccnc3c2-c2ccc(F)cc2)ccn1 (stereo not drawn) [Compound 140]
inhibition at 10 µM (ACVRL1; read-out: % Competition): < 50%
% Competition (CDK2): <50%
inhibition at 10 µM (CLK4; read-out: % Competition): < 50%
% Competition (CSNK1G3): 91%
inhibition at 10 µM (ERK1; read-out: % Competition): < 50%
% Competition (MST3): <50%
inhibition at 10 µM (PRKD1; read-out: % Competition): 83%
inhibition at 10 µM (PRKD3; read-out: % Competition): 96%
inhibition at 10 µM (ROCK2; read-out: % Competition): < 50%

Fc1ccc(-c2c(-c3ccncc3)[nH]c3nccnc23)cc1 [RO1155697-000-005]
inhibition at 10 µM (ACVRL1; ACVRL1, compound concentration 10 uM, read-out: Percent Competition): 83%
Percent Competition (CDK2; compound concentration 10 uM): 93%
inhibition at 10 µM (CLK4; CLK4, compound concentration 10 uM, read-out: Percent Competition): 88%
Percent Competition (CSNK1G3; compound concentration 10 uM): 86%
inhibition at 10 µM (ERK1; ERK1, compound concentration 10 uM, read-out: Percent Competition): 80%
Percent Competition (MST3; compound concentration 10 uM): 68%
inhibition at 10 µM (PRKD1; PRKD1, compound concentration 10 uM, read-out: Percent Competition): 92%
inhibition at 10 µM (PRKD3; PRKD3, compound concentration 10 uM, read-out: Percent Competition): 98%
inhibition at 10 µM (ROCK2; ROCK2, compound concentration 10 uM, read-out: Percent Competition): 89%
